We go through 16 compounds from PubChem BioAssay (NCI).

Some test systems named below: COLO 205 colon; HOP-92 NSCLC; HT29 colon; IGROV1 ovarian; MDA-MB-231 breast; OVCAR-8 ovarian; RPMI-8226 leukemia; SK-MEL-5 melanoma.
Test in all cases: NCI-60 cell line screen, 48 h

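Briefly, cells in 96-well plates were exposed to five compound concentrations for 48 h, and endpoints were estimated by linear interpolation. Definition used: TGI = concentration required for complete inhibition of growth.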 Where a SMILES comes first, the peptide text is derived from it.

Regarding `CC1(C)C2CC3C4CC5(Nc6ccccc6C5N41)[C@]3(C)CC2=O` (stereo partly drawn), the TGI with COLO 205 colon, with HOP-92 NSCLC, in the test with HT29 colon, with IGROV1 ovarian, in the test with MDA-MB-231 breast and in the test on OVCAR-8 ovarian was greater than 50 µM each time. The TGI in the test on RPMI-8226 leukemia and with SK-MEL-5 melanoma was greater than 50 µM each time.

As for `O=C1NC(N2CCCCC2)=N/C1=C\c1ccccc1O`, the TGI in the test on COLO 205 colon, with HOP-92 NSCLC, in the test with HT29 colon, with IGROV1 ovarian, in the test with MDA-MB-231 breast and in the test with OVCAR-8 ovarian was greater than 100 µM throughout. The TGI in the test with RPMI-8226 leukemia and in the test on SK-MEL-5 melanoma was greater than 100 µM in each case.

As to `O=C(CCCl)NNC1=NCCCCN1`, the TGI in the test with COLO 205 colon, with HOP-92 NSCLC, in the test with HT29 colon, in the test on IGROV1 ovarian, in the test on MDA-MB-231 breast and in the test with OVCAR-8 ovarian was greater than 100 µM throughout. In addition, the TGI with RPMI-8226 leukemia and in the test with SK-MEL-5 melanoma was greater than 100 µM in each case.

On to `COC(=O)[C@]1(c2cc3ccccc3[nH]2)CC2CN(CC(=O)N(C)OC)C1CC2(OC)OC` (stereo partly drawn), for which the TGI in the test on COLO 205 colon, in the test with HOP-92 NSCLC, with HT29 colon, with IGROV1 ovarian, with MDA-MB-231 breast and in the test with OVCAR-8 ovarian was greater than 100 µM each time. Further, the TGI in the test with RPMI-8226 leukemia was 39.6 µM; in the test with SK-MEL-5 melanoma, greater than 100 µM.

As to `O=C1c2ccccc2CC12Cc1ccccc1C2`, the TGI in the test on COLO 205 colon was greater than 100 µM; with HOP-92 NSCLC, 91.9 µM; with HT29 colon, 70.5 µM; with IGROV1 ovarian, greater than 100 µM; in the test on MDA-MB-231 breast, greater than 100 µM; with OVCAR-8 ovarian it was greater than 100 µM. In addition, the TGI in the test with RPMI-8226 leukemia was greater than 100 µM; in the test on SK-MEL-5 melanoma it was 56.1 µM.

With `CC(C)CC(NC(=O)C(Cc1ccccc1)NC(=O)C(Cc1c[nH]c2ccccc12)NC(=O)CNC(=O)C(N)Cc1ccc(O)cc1)C(=O)O` (stereo not drawn) (H-YGWFL-OH; configuration not given here), the TGI with COLO 205 colon was 32.9 µM; in the test with HOP-92 NSCLC, 42.1 µM; in the test with HT29 colon, greater than 100 µM; with IGROV1 ovarian it was greater than 100 µM; in the test with MDA-MB-231 breast it was greater than 100 µM; in the test on OVCAR-8 ovarian, greater than 100 µM. In addition, the TGI is 57.4 µM in the test with RPMI-8226 leukemia and greater than 100 µM in the test with SK-MEL-5 melanoma.

`O=C(CC(=O)N1N=C(N(c2ccccc2)c2ccccc2)CC1c1ccccc1)Nc1ccc(Cl)cc1` (stereo not drawn): the TGI with COLO 205 colon, in the test with HOP-92 NSCLC, with HT29 colon, in the test with IGROV1 ovarian, in the test on MDA-MB-231 breast and in the test on OVCAR-8 ovarian was greater than 100 µM in each case. Besides, the TGI in the test with RPMI-8226 leukemia and in the test on SK-MEL-5 melanoma was greater than 100 µM each time.

Turning to `O=C1N[C@@H]2c3c(Br)sc(Br)c3C(=O)[C@@H]2O1`, the TGI amounted to 6.58 µM in the test with COLO 205 colon; 11.8 µM in the test on HOP-92 NSCLC; 3.59 µM in the test with HT29 colon; 11.6 µM in the test with IGROV1 ovarian; 5.83 µM with MDA-MB-231 breast; 4.52 µM with OVCAR-8 ovarian. Besides, the TGI turned out to be 25.4 µM in the test on RPMI-8226 leukemia and 18.4 µM with SK-MEL-5 melanoma.

Regarding `CCOC(=O)c1nc2ccccc2nc1Oc1cc(OC)c(OC)c(OC)c1`, the TGI in the test with COLO 205 colon, with HOP-92 NSCLC, in the test on HT29 colon, in the test on IGROV1 ovarian, in the test with MDA-MB-231 breast and in the test on OVCAR-8 ovarian was greater than 100 µM throughout. Besides, the TGI in the test on RPMI-8226 leukemia and in the test with SK-MEL-5 melanoma was greater than 100 µM in each case.

Turning to `CCOc1ccc(N=NS(=O)(=O)O)cc1`, the TGI in the test with COLO 205 colon, in the test on HOP-92 NSCLC, with HT29 colon, with IGROV1 ovarian, in the test with MDA-MB-231 breast and in the test on OVCAR-8 ovarian was greater than 100 µM each time. The TGI with RPMI-8226 leukemia and in the test with SK-MEL-5 melanoma was greater than 100 µM each time.

`O=c1c2cc(I)ccc2nc(SCc2n[nH]c(=S)o2)n1Cc1ccccc1`: the TGI in the test on COLO 205 colon worked out at 22.8 µM; in the test on HOP-92 NSCLC, 27.9 µM; in the test on HT29 colon, 66.2 µM; with IGROV1 ovarian, 35.3 µM; in the test with MDA-MB-231 breast, 33.3 µM; with OVCAR-8 ovarian, 40.4 µM. The figures for the TGI with RPMI-8226 leukemia and in the test with SK-MEL-5 melanoma were greater than 100 µM and 26.2 µM, respectively.

As to `O=c1oc2ccc(Cl)cc2cc1-c1cn2ccccc2n1`, the TGI with COLO 205 colon is greater than 100 µM; in the test with HOP-92 NSCLC, greater than 73.3 µM; in the test with HT29 colon, greater than 50.6 µM; with IGROV1 ovarian, greater than 100 µM; with MDA-MB-231 breast it was greater than 52.7 µM; in the test with OVCAR-8 ovarian, greater than 100 µM. The TGI in the test on RPMI-8226 leukemia and with SK-MEL-5 melanoma was greater than 100 µM throughout.

On to `C(=N\OCCc1ccccc1)/c1cccnc1`, for which the TGI in the test with COLO 205 colon, in the test with HOP-92 NSCLC, with HT29 colon, in the test with IGROV1 ovarian, with MDA-MB-231 breast and in the test on OVCAR-8 ovarian was greater than 100 µM each time. Moreover, the TGI in the test on RPMI-8226 leukemia and in the test with SK-MEL-5 melanoma was greater than 100 µM each time.

In the case of `CO[C@@H]1C[C@H]2N3CC[C@@]2(c2cc4c(cc2C3)OCO4)[C@H]2O[C@@H]12`, the TGI with COLO 205 colon is 2.24 µM; in the test with HOP-92 NSCLC it was greater than 100 µM; in the test with HT29 colon, greater than 100 µM; in the test on IGROV1 ovarian, greater than 100 µM; in the test on MDA-MB-231 breast, greater than 100 µM; with OVCAR-8 ovarian, greater than 100 µM. The TGI with RPMI-8226 leukemia is greater than 100 µM; in the test with SK-MEL-5 melanoma, 0.303 µM.

In the case of `O=C(O)CN1CCN(CC(=O)N2CCN(C(=O)OCc3ccccc3)CC2)CCN(CC(=O)O)CCN(CC(=O)N2CCN(C(=O)OCc3ccccc3)CC2)CC1`, the TGI with COLO 205 colon, in the test on HOP-92 NSCLC, with HT29 colon, in the test with IGROV1 ovarian, with MDA-MB-231 breast and with OVCAR-8 ovarian was greater than 100 µM throughout. Further, the TGI with RPMI-8226 leukemia and in the test on SK-MEL-5 melanoma was greater than 100 µM throughout.

For `COC(=O)C1=C(C(=O)OC)SC(=C2S[C@@H]3[C@@H]4C[C@H]([C@@H]3S2)[C@H]2C(=O)OC(=O)[C@@H]42)S1`, the TGI in the test on COLO 205 colon, in the test on HOP-92 NSCLC, in the test with HT29 colon, in the test on IGROV1 ovarian, with MDA-MB-231 breast and in the test on OVCAR-8 ovarian was greater than 100 µM throughout. Also, the TGI in the test on RPMI-8226 leukemia and in the test with SK-MEL-5 melanoma was greater than 100 µM throughout.
